# Test system: cells (HCT-116)
# Assay: Intracellular delivery of nanoparticles produced from soluble microneedles (confocal fluorescence microscope)
# Assay type: cell-based
# Settings: HCT-116 cells, 4 hours after treatment
# Method: To this end, soluble microneedles in which a hydrophobic fluorescent material, DiD (Invitrogen, Carlsbad, CA, USA), used in cell membrane staining, was loaded were manufactured according to the method described in Example 1. Afterward, cells (HCT-116) were treated with a solution in which the microneedles were dissolved according to the method of Example 2, 4 hours later, intracellular delivery of nanoparticles produced from the soluble microneedles was observed using a confocal fluorescence microscope.
compound,measurement,value
"CCCCCCCCCCCCCCCCCCN1C(=CC=CC=CC2=[N+](CCCCCCCCCCCCCCCCCC)c3ccccc3C2(C)C)C(C)(C)c2ccccc21.[I-] [DiD, 1,1′-dioctadecyl-3,3,3′,3′-tetramethylindodicarbocyanine iodide]",cellular localisation of the hydrophobic fluorescent material DiD,stained the cell membrane

# — patent US12226523B2, “Method for preparing self-assembled nanoparticle releasing soluble microneedle structure” (RESEARCH & BUSINESS FOUNDATION SUNGKYUNKWAN UNIVERSITY, priority 2016, dated 2025)
